Experimental data reported in patent US20230151049A1, “Compounds Useful in HIV Therapy” (priority 2020, published 2023).
Several values for one entry are separate records, joined by “and”; a condition that tells them apart may be missing. Identical values can stand only once. Like-named read-outs stand apart in the source and are kept apart here.

Test: EFdA Rat PK Studies (subcutaneous and intramuscular groups), plasma concentration by LC-MS/MS
Assay type: in vivo, Wistar Han rats
Settings: for Assayed Concentrations of EFdA, individual rats / Assayed Concentrations of EFdA, Mean / concentration at 0.5 h / concentration at 1 h / concentration at 4 h / concentration at 7 h / concentration at 24 h / concentration at 48 h / concentration at 72 h / concentration at 6 day / concentration at 25 day: plasma; for concentration at 0.5 h / concentration at 1 h / concentration at 4 h / concentration at 7 h / concentration at 24 h / concentration at 48 h / concentration at 72 h / concentration at 6 day / concentration at 25 day: male, Wistar Han, rat
Text: Protocol for EFdA Rat PK Studies Conducted at Charles River Laboratories, NY.
A total of seven naïve male Wistar Han rats, 200-250 g, were received from Charles River Laboratories, Kingston, N.Y. All animals were received from the supplier equipped with a surgically-implanted jugular vein catheter (JVC) for blood sample collection. Following an acclimation period, the animals were assigned to the study based on acceptable health as determined by a staff veterinarian and catheter patency. Animals were placed into two groups of 3 rats per group. Fasting of the animals before or after dosing was not required.
On Day 1 each animal in Group 1 received a single subcutaneous injection of prepared test article at a target dose level of 20 mg/kg and at a dose volume of 0.33 mL/kg. Each animal in Group 2 received a single intramuscular injection of prepared test article into a thigh muscle at a target dose level of 20 mg/kg and at a dose volume of 0.33 mL/kg. The injection sites were shaved prior to dosing and identified with an indelible marker for daily monitoring during the study. The animals were manually restrained for dosing and were not sedated. The dose suspension was mixed well by inversion before each dose to ensure homogeneity. All dosing was performed as detailed in the study protocol and was completed without incident. […] In addition, all animals are monitored twice daily by the veterinary staff for clinical abnormalities.
Blood samples were collected from the study animals as detailed in the sample collection Table 2 below.
Each blood sample for PK (250 μL) was collected from the jugular vein catheter or by venipuncture of a jugular vein. The blood was transferred to a tube containing NaF/Na2EDTA anticoagulant and inverted several times to mix. The blood samples were maintained on crushed ice before centrifugation at 2200×g for 10 minutes at 5° C. to isolate plasma. The resulting plasma samples were transferred to individual polypropylene tubes in a 96-well plate format and immediately placed on dry ice until storage at nominally −80° C. prior to analysis.
The PK plasma samples were analyzed by the Testing Facility to determine the concentration of EFdA using an LC-MS/MS Research Grade Assay (RGA-1) with sensitivity to 0.1 ng/mL. Following review of sample analysis data through Day 29, further sample analysis was discontinued and the study was terminated. The individual and mean plasma concentration-time data are presented in Tables 3 and 4 and mean concentration-time profiles are shown in FIGS. 1 and 2.

SMILES: C#C[C@]1(CO)O[C@@H](n2cnc3c(N)nc(F)nc32)C[C@@H]1O [EFdA, (2R,3S,5R)-5-(6-amino-2-fluoro-9H-purin-9-yl)-2-ethynyl-2-(hydroxymethyl)tetrahydrofuran-3-ol]
- Assayed Concentrations of EFdA, individual rats (0.5 hr, IM 20 mg/kg): 1150 ng/mL and 684 ng/mL
- Assayed Concentrations of EFdA, individual rats (0.5 hr, SC 20 mg/kg, 20 mg/kg): 1000 ng/mL and 640 ng/mL and 2210 ng/mL
- Assayed Concentrations of EFdA, individual rats (1 hr, IM 20 mg/kg): 1640 ng/mL and 1400 ng/mL
- Assayed Concentrations of EFdA, individual rats (1 hr, SC 20 mg/kg, 20 mg/kg): 1160 ng/mL and 1040 ng/mL and 3030 ng/mL
- Assayed Concentrations of EFdA, individual rats (4 hr, IM 20 mg/kg): 436 ng/mL and 733 ng/mL
- Assayed Concentrations of EFdA, individual rats (4 hr, SC 20 mg/kg, 20 mg/kg): 676 ng/mL and 708 ng/mL
- Assayed Concentrations of EFdA, individual rats (7 hr, IM 20 mg/kg): 241 ng/mL and 191 ng/mL and 426 ng/mL
- Assayed Concentrations of EFdA, individual rats (7 hr, SC 20 mg/kg, 20 mg/kg): 372 ng/mL and 216 ng/mL
- Assayed Concentrations of EFdA, individual rats (24 hr, IM 20 mg/kg): 24.7 ng/mL and 1.96 ng/mL and 32.6 ng/mL
- Assayed Concentrations of EFdA, individual rats (24 hr, SC 20 mg/kg, 20 mg/kg): 6.70 ng/mL and 14.7 ng/mL and 2.53 ng/mL
- Assayed Concentrations of EFdA, individual rats (48 hr, IM 20 mg/kg): 5.25 ng/mL and 0.369 ng/mL and 0.915 ng/mL
- Assayed Concentrations of EFdA, individual rats (48 hr, SC 20 mg/kg, 20 mg/kg): 0.713 ng/mL and 0.543 ng/mL
- Assayed Concentrations of EFdA, individual rats (72 hr, IM 20 mg/kg): 0.316 ng/mL and 0.241 ng/mL
- Assayed Concentrations of EFdA, individual rats (72 hr, SC 20 mg/kg, 20 mg/kg): 0.270 ng/mL and 0.201 ng/mL
- Assayed Concentrations of EFdA, individual rats (Day 6, IM 20 mg/kg): BQL (BQL—Below Quantitation Limit, <0.100 ng/mL) and 0.103 ng/mL
- Assayed Concentrations of EFdA, individual rats (Day 6, SC 20 mg/kg, 20 mg/kg): BQL (BQL—Below Quantitation Limit, <0.100 ng/mL)
- Assayed Concentrations of EFdA, Mean (Day 8, IM 20 mg/kg): BQL (BQL—Below Quantitation Limit, <0.100 ng/mL)
- Assayed Concentrations of EFdA, individual rats (Day 8, IM 20 mg/kg): BQL (BQL—Below Quantitation Limit, <0.100 ng/mL)
- Assayed Concentrations of EFdA, Mean (Day 8, SC 20 mg/kg): BQL (BQL—Below Quantitation Limit, <0.100 ng/mL)
- Assayed Concentrations of EFdA, individual rats (Day 8, SC 20 mg/kg): BQL (BQL—Below Quantitation Limit, <0.100 ng/mL)
- Assayed Concentrations of EFdA, Mean (Day 11, IM 20 mg/kg): BQL (BQL—Below Quantitation Limit, <0.100 ng/mL)
- Assayed Concentrations of EFdA, individual rats (Day 11, IM 20 mg/kg): BQL (BQL—Below Quantitation Limit, <0.100 ng/mL)
- Assayed Concentrations of EFdA, Mean (Day 11, SC 20 mg/kg): BQL (BQL—Below Quantitation Limit, <0.100 ng/mL)
- Assayed Concentrations of EFdA, individual rats (Day 11, SC 20 mg/kg): BQL (BQL—Below Quantitation Limit, <0.100 ng/mL)
- Assayed Concentrations of EFdA, Mean (Day 15, IM 20 mg/kg): BQL (BQL—Below Quantitation Limit, <0.100 ng/mL)
- Assayed Concentrations of EFdA, individual rats (Day 15, IM 20 mg/kg): BQL (BQL—Below Quantitation Limit, <0.100 ng/mL)
- Assayed Concentrations of EFdA, Mean (Day 15, SC 20 mg/kg): BQL (BQL—Below Quantitation Limit, <0.100 ng/mL)
- Assayed Concentrations of EFdA, individual rats (Day 15, SC 20 mg/kg): BQL (BQL—Below Quantitation Limit, <0.100 ng/mL)
- Assayed Concentrations of EFdA, Mean (Day 22, IM 20 mg/kg): BQL (BQL—Below Quantitation Limit, <0.100 ng/mL)
- Assayed Concentrations of EFdA, individual rats (Day 22, IM 20 mg/kg): BQL (BQL—Below Quantitation Limit, <0.100 ng/mL)
- Assayed Concentrations of EFdA, Mean (Day 22, SC 20 mg/kg): BQL (BQL—Below Quantitation Limit, <0.100 ng/mL)
- Assayed Concentrations of EFdA, individual rats (Day 22, SC 20 mg/kg): BQL (BQL—Below Quantitation Limit, <0.100 ng/mL)
- Assayed Concentrations of EFdA, Mean (Day 25, IM 20 mg/kg): BQL (BQL—Below Quantitation Limit, <0.100 ng/mL)
- Assayed Concentrations of EFdA, individual rats (Day 25, IM 20 mg/kg): BQL (BQL—Below Quantitation Limit, <0.100 ng/mL)
- Assayed Concentrations of EFdA, individual rats (Day 25, SC 20 mg/kg, 20 mg/kg): BQL (BQL—Below Quantitation Limit, <0.100 ng/mL)
- Assayed Concentrations of EFdA, Mean (Day 29, IM 20 mg/kg): BQL (BQL—Below Quantitation Limit, <0.100 ng/mL)
- Assayed Concentrations of EFdA, individual rats (Day 29, IM 20 mg/kg): BQL (BQL—Below Quantitation Limit, <0.100 ng/mL)
- Assayed Concentrations of EFdA, Mean (Day 29, SC 20 mg/kg): BQL (BQL—Below Quantitation Limit, <0.100 ng/mL)
- Assayed Concentrations of EFdA, individual rats (Day 29, SC 20 mg/kg): BQL (BQL—Below Quantitation Limit, <0.100 ng/mL)
- concentration at 0.5 h (intramuscular, 20 mg/kg, 0.5 hr, IM 20 mg/kg, read-out: Assayed Concentrations of EFdA, Mean): 921 ng/mL
- concentration at 0.5 h (intramuscular, 20 mg/kg, 0.5 hr, IM 20 mg/kg, read-out: Assayed Concentrations of EFdA, individual rats): 929 ng/mL
- concentration at 1 h (intramuscular, 20 mg/kg, 1 hr, IM 20 mg/kg, read-out: Assayed Concentrations of EFdA, Mean): 1330 ng/mL
- concentration at 1 h (intramuscular, 20 mg/kg, 1 hr, IM 20 mg/kg, read-out: Assayed Concentrations of EFdA, individual rats): 957 ng/mL
- concentration at 4 h (intramuscular, 20 mg/kg, 4 hr, IM 20 mg/kg, read-out: Assayed Concentrations of EFdA, Mean): 610 ng/mL
- concentration at 4 h (intramuscular, 20 mg/kg, 4 hr, IM 20 mg/kg, read-out: Assayed Concentrations of EFdA, individual rats): 662 ng/mL
- concentration at 7 h (intramuscular, 20 mg/kg, 7 hr, IM 20 mg/kg, read-out: Assayed Concentrations of EFdA, Mean): 286 ng/mL
- concentration at 24 h (intramuscular, 20 mg/kg, 24 hr, IM 20 mg/kg, read-out: Assayed Concentrations of EFdA, Mean): 19.8 ng/mL
- concentration at 48 h (intramuscular, 20 mg/kg, 48 hr, IM 20 mg/kg, read-out: Assayed Concentrations of EFdA, Mean): 2.18 ng/mL
- concentration at 72 h (intramuscular, 20 mg/kg, 72 hr, IM 20 mg/kg, read-out: Assayed Concentrations of EFdA, Mean): 0.29 ng/mL
- concentration at 72 h (intramuscular, 20 mg/kg, 72 hr, IM 20 mg/kg, read-out: Assayed Concentrations of EFdA, individual rats): 0.301 ng/mL
- concentration at 6 day (intramuscular, 20 mg/kg, Day 6, IM 20 mg/kg, read-out: Assayed Concentrations of EFdA, Mean): 0.1 ng/mL
- concentration at 6 day (intramuscular, 20 mg/kg, Day 6, IM 20 mg/kg, read-out: Assayed Concentrations of EFdA, individual rats): 0.102 ng/mL
- concentration at 0.5 h (sc, 20 mg/kg, 0.5 hr, SC 20 mg/kg, read-out: Assayed Concentrations of EFdA, Mean): 1280 ng/mL
- concentration at 1 h (sc, 20 mg/kg, 1 hr, SC 20 mg/kg, read-out: Assayed Concentrations of EFdA, Mean): 1430 ng/mL
- concentration at 4 h (sc, 20 mg/kg, 4 hr, SC 20 mg/kg, read-out: Assayed Concentrations of EFdA, Mean): 639 ng/mL
- concentration at 4 h (sc, 20 mg/kg, 4 hr, SC 20 mg/kg, read-out: Assayed Concentrations of EFdA, individual rats): 534 ng/mL
- concentration at 7 h (sc, 20 mg/kg, 7 hr, SC 20 mg/kg, read-out: Assayed Concentrations of EFdA, Mean): 303 ng/mL
- concentration at 7 h (sc, 20 mg/kg, 7 hr, SC 20 mg/kg, read-out: Assayed Concentrations of EFdA, individual rats): 320 ng/mL
- concentration at 24 h (sc, 20 mg/kg, 24 hr, SC 20 mg/kg, read-out: Assayed Concentrations of EFdA, Mean): 7.98 ng/mL
- concentration at 48 h (sc, 20 mg/kg, 48 hr, SC 20 mg/kg, read-out: Assayed Concentrations of EFdA, Mean): 0.68 ng/mL
- concentration at 48 h (sc, 20 mg/kg, 48 hr, SC 20 mg/kg, read-out: Assayed Concentrations of EFdA, individual rats): 0.771 ng/mL
- concentration at 72 h (sc, 20 mg/kg, 72 hr, SC 20 mg/kg, read-out: Assayed Concentrations of EFdA, Mean): 0.241 ng/mL
- concentration at 72 h (sc, 20 mg/kg, 72 hr, SC 20 mg/kg, read-out: Assayed Concentrations of EFdA, individual rats): 0.251 ng/mL
- concentration at 6 day (sc, 20 mg/kg, Day 6, SC 20 mg/kg, read-out: Assayed Concentrations of EFdA, Mean): 0.04 ng/mL
- concentration at 6 day (sc, 20 mg/kg, Day 6, SC 20 mg/kg, read-out: Assayed Concentrations of EFdA, individual rats): 0.117 ng/mL
- concentration at 25 day (sc, 20 mg/kg, Day 25, SC 20 mg/kg, read-out: Assayed Concentrations of EFdA, Mean): 0.221 ng/mL
- concentration at 25 day (sc, 20 mg/kg, Day 25, SC 20 mg/kg, read-out: Assayed Concentrations of EFdA, individual rats): 0.221 ng/mL
- detectable duration of exposure of EFdA (rat IM and SC administration of 20 mg/kg): less than 8 days
